Experimental data taken from publication PMC11184370 (RSC Advances, 2024).
Like-named read-outs stand apart in the source and are kept apart here.

Key:
[1] = molecular target: T1, Bovine serum albumin (BSA) (Bos taurus, UniProt P02769); experiment: BSA absorption titration; assay type: binding; details: λmax = 278 nm
[2] = test system: MCF7 breast carcinoma cells; experiment: MTT in vitro cytotoxicity, MCF7; assay type: cell-based, human; details: for Selective index (SI), MCF7: vs WI38; for IC50: read-out: In vitro cytotoxicity IC50, MCF7
[3] = molecular target: T1, Bovine serum albumin (BSA); experiment: BSA fluorescence quenching; assay type: binding; details: λmax = 345 nm; for Quenching rate constant (Kq), BSA emission: τ0 = 10^−8 s
[4] = test system: WI38 normal lung fibroblast cells; experiment: MTT in vitro cytotoxicity, WI38; assay type: cell-based, human; details: read-out: In vitro cytotoxicity IC50, WI38
tRNA [5] = experiment: UV-visible absorption titration with tRNA; assay type: binding, yeast; details: Tris–HCl buffer pH 7.2
ctDNA [6] = experiment: Ethidium bromide displacement, fluorescence quenching of EB-ctDNA adduct; assay type: binding, calf thymus; details: λem = 580 nm; for Quenching constant (Ksv), emission spectroscopy, ctDNA: EB 5 μM, DNA 50 μM, [Q] 10–200 μM
tRNA [7] = experiment: Ethidium bromide displacement, fluorescence quenching of EB-tRNA adduct; assay type: binding, yeast; details: λem = 580 nm; for Quenching constant (Ksv), emission spectroscopy, tRNA: EB 5 μM, RNA 50 μM, [Q] 10–200 μM
ctDNA [8] = experiment: UV-visible absorption titration with ctDNA; assay type: binding, calf thymus; details: Tris–HCl buffer pH 7.2
[9] = test system: HeLa cervical carcinoma cells; experiment: MTT in vitro cytotoxicity, HeLa; assay type: cell-based, human; details: for Selective index (SI), HeLa: vs WI38; for IC50: read-out: In vitro cytotoxicity IC50, HeLa
[10] = Solution stability by UV-visible spectroscopy in PBS; assay type: physicochemical; details: PBS pH 7.2 / DMSO, 2.5 × 10^−5 M, up to 48 h
HeLa cells [11] = experiment: Cell cycle distribution by flow cytometry; assay type: cell-based, human; details: IC50 concentration, 24 h, control 20.3%
HeLa cells [12] = experiment: Annexin V/propidium iodide flow cytometry; assay type: cell-based, human; details: IC50, 24 h
[13] = test system: MCF7 breast carcinoma cells; details: read-out: In vitro cytotoxicity IC50, MCF7; 24 h ref [84]; cited from earlier work
[14] = test system: HeLa cervical carcinoma cells; details: read-out: In vitro cytotoxicity IC50, HeLa; 48 h ref [85]; cited from earlier work

T1 sequence (P02769 25-607): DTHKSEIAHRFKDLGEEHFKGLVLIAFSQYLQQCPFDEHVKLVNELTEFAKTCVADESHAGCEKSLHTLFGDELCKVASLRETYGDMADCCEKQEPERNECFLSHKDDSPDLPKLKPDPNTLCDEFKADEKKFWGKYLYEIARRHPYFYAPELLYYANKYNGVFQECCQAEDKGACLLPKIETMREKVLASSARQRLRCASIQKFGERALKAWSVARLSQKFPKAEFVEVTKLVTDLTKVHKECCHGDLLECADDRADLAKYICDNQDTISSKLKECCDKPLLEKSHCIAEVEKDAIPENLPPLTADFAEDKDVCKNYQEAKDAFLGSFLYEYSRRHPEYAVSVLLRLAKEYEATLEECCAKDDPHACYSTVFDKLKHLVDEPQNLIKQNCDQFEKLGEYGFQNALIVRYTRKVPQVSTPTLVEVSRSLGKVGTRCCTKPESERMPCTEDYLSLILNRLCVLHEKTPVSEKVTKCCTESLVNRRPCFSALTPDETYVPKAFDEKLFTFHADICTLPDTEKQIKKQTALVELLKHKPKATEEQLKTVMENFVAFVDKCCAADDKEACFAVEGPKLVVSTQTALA

| % hyper (hyperchromism), BSA absorption spectroscopy [1] | % hypo, BSA emission spectroscopy [3] | Number of binding sites (n), BSA emission [3] | Stern–Volmer quenching constant (Ksv), BSA emission [3] | Quenching rate constant (Kq), BSA emission [3] | % H, emission spectroscopy, ctDNA (ctDNA [6]) | Quenching constant (Ksv), emission spectroscopy, ctDNA (ctDNA [6]) | % H, emission spectroscopy, tRNA (tRNA [7]) | Quenching constant (Ksv), emission spectroscopy, tRNA (tRNA [7]) | Compound | Selective index (SI), MCF7 ([2]; 24 h) | IC50 ([2]; 24 h) | IC50 ([2]; 48 h) | IC50 ([4]; 24 h) | IC50 ([4]; 48 h) | % H* (hypochromism), absorption spectroscopy, tRNA (tRNA [5]) | % H* (hypochromism), absorption spectroscopy, ctDNA (ctDNA [8]) | Selective index (SI), HeLa ([9]; 24 h) | Selective index (SI), HeLa ([9]; 48 h) | IC50 ([9]; 24 h) | IC50 ([9]; 48 h) | other results |
| --- | --- | --- | --- | --- | --- | --- | --- | --- | --- | --- | --- | --- | --- | --- | --- | --- | --- | --- | --- | --- | --- |
| 40.74% | 35.69% | 0.92 | 4.98 × 10^4 | 4.98e+12 M⁻¹ s⁻¹ | 50.1% | 0.52 ×10^4 | 26.9% | 1.6 ×10^4 | [Ag(HL)2]NO3 [Complex C3] | 1.28 | 58.8 ± 2.9 µM | 54 ± 3 µM | 75.4 ± 3.6 µM | 63.6 ± 3.3 µM | 6.66% | 6.81% | 1.93 | 1.95 | 39.1 ± 2.5 µM | 32.5 ± 2.3 µM | Solution stability (changes of UV-visible spectrum with time) [10]: slight decrease in absorption intensity |
| 39.03% | 27.18% | 0.93 | 2.33 × 10^4 | 2.33e+12 M⁻¹ s⁻¹ | 32.4% | 0.34 ×10^4 | 26.1% | 1.19 ×10^4 | 3-acetylcoumarin benzoylhydrazone [HL] | 1.74 | 40.8 ± 2.6 µM | 36.8 ± 2.4 µM | 71.1 ± 3.4 µM | 75 ± 3.5 µM | 7.20% | 8.35% | 1.15 | 1.57 | 61.6 ± 3.1 µM | 47.6 ± 2.9 µM | Selective index (SI), MCF7 ([2]; 48 h): 2.03; Solution stability (changes of UV-visible spectrum with time) [10]: insignificant changes up to the first 3 h then suffered hydrolysis in the aqueous media through the next 24 h |
| 11.90% | 42.63% | 1.03 | 5.39 × 10^4 | 5.39e+12 M⁻¹ s⁻¹ | 54.2% | 1.42 ×10^4 | 48.8% | 4.51 ×10^4 | [Pt(HL)Cl]Cl [Complex C2] | 2.39 | 12.3 ± 0.9 µM | 8.61 ± 0.6 µM | 29.5 ± 2.2 µM | 31.3 ± 2.2 µM | 7.60% | 10.4% | 3.63 | 4.95 | 8.12 ± 0.7 µM | 6.31 ± 0.4 µM | Selective index (SI), MCF7 ([2]; 48 h): 3.63; Cells in G2/M phase (HeLa cells [11]): 20.3%; Solution stability (changes of UV-visible spectrum with time) [10]: insignificant changes during the 48 h test; Change of necrotic cells compared to untreated HeLa cells (HeLa cells [12]): 1.6 fold |
| – | – | – | – | – | – | – | – | – | N.N.[Cl][Pt][Cl] [Cisplatin, cis-platin] | – | – | – | – | – | – | – | – | – | – | – | IC50 [13]: 31.2 ± 1.8 µM; IC50 [14]: 67.6 ± 2 µM |
